Measured values taken from patent US20230285516A1 (priority 2020, published 2023).

Key:
TNF-α = TNF-α tissue expression in cartilage and synovium co-cultures (histochemistry); assay type: cell-based, human; conditions: RA or OA co-cultures, 1% type I polymerized collagen, 7 days
Description: Cartilage and synovium co-cultures were performed from 9 patients with RA and 8 patients with OA who underwent hip or knee replacement (Table 1). Joint tissue was cultured with (a) RPMI (control), (b) 1% type I polymerized collagen, for 7 days. The supernatants and tissues of days 1 and 7 were […] collected. In the culture supernatants the concentration of IL-1β, IL-8, IL-10, IL-12, TNF-α and IFN-γ was quantified by ELISA and the results were normalized with total protein concentration. The expression of IL-1β and TNF-α was evaluated using histochemistry.
FIG. 2. Effect of type I polymerized collagen on TNF-α expression. (A) Cells immunoreactive to TNF-α in the synovial tissue of the co-cultures. (B) Immunoreactive TNF-α+ cells in cartilage from co-cultures. Rheumatoid arthritis (RA): left panel. Osteoarthritis (OA): right panel. Basal: tissue in basal conditions. […] Each culture was performed in triplicate for each condition, of which at least two sections of each of the tissues were analyzed. The results are expressed as the mean±standard error (SEM) of the percentage of immunoreactive cells in 9 co-cultures of patients with RA and 8 with OA. *p≤0.002.

IL-23 = IL-23 gene expression in co-cultured tissues (RT-PCR); assay type: cell-based, human; conditions: co-cultures from patients with RA, vs control
Excerpt: FIG. 7. Effect of type I polymerized collagen on the gene expression of pro- and anti-inflammatory cytokines and factors in the tissues of cartilage and synovial tissue co-cultures of patients with rheumatoid arthritis (RA). (A) Quantification of TNF-α, IL-6 and IL-10 gene expression and (B) Quantification of IL-23 and Foxp3 gene expression by RT-PCR in synovial membrane tissues and cartilage co-cultured for 7 days. The bars show the mean±SD of the transcript levels of the samples normalized through the expression of the housekeeping gene GADPH determined by 2ΔΔCt. The data represent the mean±SD of 9 cartilage and synovial co-cultures from RA patients. Each culture was performed in triplicate for each condition. Basal: tissue in basal conditions.

dormant cells = conditions: Jou I-M 2005; Furuzawa-Carballeda 2003; cited from earlier work
[1] = tested on: dendritic (CD4−/CD11c+) cells; assay: FACS of spleen CD11c+ dendritic cells in CIA models; assay type: in vivo, mice; conditions: CIA model
Description: (§1) Early Arthritis Model. Fifty mice with the same characteristics were immunized at the base of the tail with 100 μg of chicken type II collagen emulsified in complete Freund's adjuvant. The boost was applied on day 21 at the base of the tail with 100 μg of type II collagen emulsified with Freund's incomplete adjuvant. On the same boosting day, the treatments (a-d) were applied every week for six weeks. Three animals were euthanized in the sixth week and three in the thirteenth week. The spleen, lymph nodes, joint tissue, liver, lungs, kidneys and heart were obtained in order to assess the inflammatory infiltrate, the predominant cell populations and the expression of pro- and anti-inflammatory cytokines.
(§2) Established Arthritis Model. Arthritis was induced as in the previous model in 50 mice and the treatments were applied intramuscularly, after 2 weeks of the boost, every week for 6 weeks. Three animals were euthanized in the eighth week and three in the fifteenth week. The spleen, lymph nodes, joint tissue, liver, lungs, kidneys and heart were obtained in order to assess the inflammatory infiltrate, the predominant cell populations and the expression of pro- and anti-inflammatory cytokines.
Cytometric evaluation. […]
FIG. 12. […] The expression of CD11c was detected by flow cytometry. The results are representative of 6 mice analyzed in each group. […]

NF-κB = assay: Ex vivo NF-κBp65 and IκBα expression in splenocytes, CIA models; design: species or system mice; conditions: early and long-standing arthritis
Description: We infer that the mechanism of action of type I polymerized collagen could be given through the regulation of the transcription factor NF-κB and AP-1. In particular, NF-κB regulates the expression of pro-inflammatory enzymes, cytokines, chemokines, immunoreceptors, and cell adhesion molecules, as well as apoptosis. In the light of this knowledge, the expression of NF-κBp65 and its inhibitor IκBα in splenocytes were analyzed ex vivo (FIG. 12).
FIG. 12. Effect of type I polymerized collagen in the early (preventive) and long-standing (late or palliative) arthritis model on ex vivo NF-κB and IκB-α expression in splenocytes. (A) Spleen cells from early arthritis model mice at first sacrifice. (B) Splenocytes obtained immediately after the second sacrifice. (C) Spleen cells from long-standing arthritis model mice at first sacrifice. (D) Splenocytes obtained immediately after the second sacrifice. The intracellular levels of NF-κBp65 and IκBα cells were detected by flow cytometry. The results are representative of 6 mice analyzed in each group. The horizontal dotted line represents the average normal values obtained from mice (n=3) without CIA. Data represent mean±SEM. *p<0.05.

Th2 (CD4+/IL-4+) cells = assay: FACS of spleen Th2 cells in CIA models; assay type: in vivo, mice; conditions: early arthritis model, first sacrifice only
Description: as §1
as §2, with “cytokines. […]” for “cytokines.”
FIG. 10. […] The intracellular production of IL-17A, IL-4, IFN-γ and Foxp3 by CD4+ T cells was detected by flow cytometry. The results are representative of 6 mice analyzed in each group. […]

[2] = severe to semi-critical disease

collagen-polyvinylpyrrolidone [type I polymerized collagen]
fever, alterations in heart rate, respiratory rate, headache and arthralgias (SARS-CoV2 (Covid-19); after 7 days): disappearance | adverse effects (SARS-CoV2 (Covid-19); [2]): No adverse effects were detected, except for pain at the application site | persistence of pain at the application site (SARS-CoV2 (Covid-19); [2]): 5 to 15 min | tissue expression of TNF-α vs. controls in synovial tissue (TNF-α): decreased | transcription of IL-23 gene (IL-23): negatively regulated | response of dormant cells (dormant cells): does not induce any response | CD11c+ population (antigenic presentation) [1]: decrease | percentage of NF-kB+ complexes with its inhibitor IκBα+ in splenocytes (NF-κB): increased to a statistically significant level | number of circulating Th2 cells (Th2 (CD4+/IL-4+) cells): modified
